{"source": "paper PMC4776135", "about": "“Small Molecule Inhibition of Ligand-Stimulated RAGE-DIAPH1 Signal Transduction” (Scientific Reports, 2016)", "key": {"[1]": {"test_system": "phospho/total ERK1/2 in primary murine aortic SMCs", "assay": "CML-AGE-stimulated ERK1/2 phosphorylation, Western blot", "assay_type": "cell-based", "details": "1 µM compound, 1.5 h pretreatment; CML-AGE 10 µg/ml 20 min; p < 0.05", "description": "(§1) We tested the effects of compounds 1–13 on cellular signaling in primary murine aortic SMCs. […] In primary murine aortic SMCs, we tested the effects of CML-AGE RAGE ligand on Akt and ERK1/2 phosphorylation, as these pathways are seminally linked to fundamental properties of these cells and their responses to stress, such as growth, proliferation, hypertrophy, migration, and survival.\n(§2) Figure 3 Effects of compounds 1–13 on RAGE ligand-stimulated phosphorylation of ERK and AKT in primary murine aortic SMCs. Primary murine SMCs were incubated with compounds 1–13 (1 μM) for 1.5 h and then treated with RAGE ligand CML-AGE (10 μg/ml) for 20 minutes. Cells were harvested and total lysates were subjected to Western blotting with antibodies against phospho-ERK and phospho-AKT. Blots were then re-probed with antibodies to total-ERK and total-AKT and relative optical density (ROD) is reported. (a) Quantified levels of phosphorylated/total ERK normalized to total ERK are shown. (b) Quantified levels of phosphorylated/total AKT normalized to total AKT are shown. Assays results shown are representative of three independent experiments. Error bars represent SEM. *indicates p < 0.05 comparing CML-AGE vs. CML-AGE and compound treatment and ^#indicates p < 0.001 comparing CML-AGE vs. serum free medium (SFM) alone vehicle. Above each Western blot, S = serum-free medium and C = CML-AGE; numbers above the blots indicate the compound number.\n(§3) Total protein extracts were prepared from primary murine aortic smooth muscle cells using cell lysis buffer (Cell Signaling Technology, Beverly, MA). Equal amounts of protein (30 μg/sample) were subjected to SDS-PAGE (4–12%) followed by electrophoretic transfer to nitrocellulose membranes. Nonspecific binding was blocked by incubation of membranes with BSA (5%) for 1 h. The blot was incubated with one of the following antibodies as the primary antibody for the reaction: anti-phospho-ERK1/2 (P-ERK1/2) IgG, anti-total-ERK1/2 (T-ERK1/2) IgG, anti-phospho-AKT (P-AKT) IgG, and anti-total-AKT (T-AKT) IgG (Cell Signaling Technology). Each primary antibody was used at a dilution of 1:1,000 overnight at 4 °C according to the manufacturer’s instructions. Horseradish peroxidase-conjugated secondary antibodies (1:2,500; Amersham Biosciences) were used to identify sites of binding of each primary antibody.\n(§4) Murine vascular SMCs were cultured from the aortas of 10-week old male mice using a modification of the procedure of Travo and Barret[68]. SMCs were cultured following an explant protocol in accordance with institutional guidelines. Wild-type murine aortic vascular SMCs were isolated and used between passages 8 to 12. Human aortic vascular smooth muscle cells were purchased from American Type Culture Collection (ATCC, Manassas, VA) and cultured according to the methods recommended by ATCC. Murine primary aortic endothelial cells were from 6- to 8-week-old wild-type C57BL/6J mice (Jackson Laboratories, Bar Harbor ME) and used under passage 10[69]. THP-1 cells were obtained from the American Type Tissue Collection (ATCC, Manassas VA) and used according to the manufacturer’s instructions."}, "[2]": {"test_system": "phospho/total Akt in primary murine aortic SMCs", "assay": "CML-AGE-stimulated Akt phosphorylation, Western blot", "assay_type": "cell-based", "details": "1 µM compound, 1.5 h pretreatment; CML-AGE 10 µg/ml 20 min; p < 0.05", "description": "as §1, §2, §3, §4"}, "[3]": {"test_system": "Il6 mRNA in primary murine aortic endothelial cells (MAECs)", "assay": "CML-AGE-mediated upregulation of Il6 mRNA, real-time quantitative PCR", "assay_type": "cell-based", "details": "1 µM compound 1.5 h, CML-AGE 10 µg/ml 6 h", "description": "First, we tested the effects of RAGE ligand CML-AGE in primary murine aortic endothelial cells (MAECs). […] To assess the effects of the compounds, we pre-treated MAECs for 1.5 h with compounds 1–13 (1 μM).\nFigure 5 Effects of compounds 1–13 on RAGE ligand-stimulated inflammatory gene expression in primary murine aortic endothelial cells and human THP-1 cells. Primary murine aortic endothelial cells (a,b) or human THP1 cells (c,d) were subjected to 1.5 h incubation with compounds 1–13 (1 μM) followed by stimulation with CML-AGE (10 μg/ml) for 6 h. Cells were then harvested and gene expression of the inflammatory markers Tnfα and Il6 normalized to β-actin (a,b) or 18s rRNA (c,d) was performed. Assays were performed in triplicate and results are representative of three independent experiments. Error bars represent SEM. *indicates p < 0.05 comparing CML-AGE vs. CML-AGE and compound treatment ^#indicates p < 0.001 comparing CML-AGE vs. SFM vehicle (SFM).\n(§5) Total RNA was extracted from cells and tissues using the RNeasy lipid kit (Qiagen, Hilden, Germany). cDNA was synthesized with MultiScribe reverse transcriptase (Applied Biosystems, Foster City, CA). Real-time quantitative PCR was performed using the TaqMan method (50 °C for 2 min, 95 °C for 10 min, and 40 cycles of 95 °C for 15 s and 60 °C for 1 min) with premade primer sets (Applied Biosystems). The relative abundance of transcripts was normalized according to the expression of 18S rRNA (for human cells) or β-actin (for murine cells and tissues) using the ΔΔCt method. Supplementary Table S4 lists the specific primers used in the outlined studies."}, "Tnfa mRNA in kidney": {"test_system": "Tnfa mRNA in kidney", "assay": "CML-AGE infusion in vivo, kidney Tnfa mRNA", "set-up": "species or system C57BL/6J mice", "details": "mice; four doses 5 mg/kg i.p. every 12 h; CML-AGE 150 µg i.p.; kidney 4 h later; p < 0.05", "description": "Next, it was essential to test the ability of the thirteen compounds to block RAGE ligand-mediated inflammation in vivo. […] To test this concept in the present study, we treated wild-type mice with CML-AGE (150 μg) by intraperitoneal injection after pretreatment with four doses of compounds 1–13 (5 mg/kg per dose, 12 h apart). Thirty minutes after the fourth dose of compound, mice were injected with CML-AGE and sacrificed 4 h later. Kidney tissue was retrieved and subjected to real-time quantitative PCR for detection of transcripts encoding inflammatory mediators.\nFigure 6 Effect of compounds 1–13 in vivo. (a,b) C57BL/6J mice were subjected to intraperitoneal administration of four doses of compounds 1–13 (5 mg/kg every 12 h) or equal volumes of vehicle (PBS). Thirty minutes after the final injection, mice were injected with CML-AGE (150 μg) by intraperitoneal administration. Four h later, mice were sacrificed and kidney was retrieved. Real time quantitative PCR was performed for detection of Tnfa (a) and Il6 (b). (c) Assessment of compounds on cardiac functional recovery in diabetes. C57BL/6 mice were rendered type 1 diabetic with streptozotocin. After a mean range of 37–45 days of untreated hyperglycemia, mice were sacrificed and hearts rapidly retrieved for assessment of the efficacy of compounds 1–13 (1 μM) or vehicle, DMSO, on left ventricular developed pressure (LVDP) after ischemia. All hearts were subjected to 30 minutes of global ischemia followed by 60 min of reperfusion. Test compounds were introduced 10 minutes prior to the start of ischemia and continued throughout the reperfusion protocol. In (a–c), N = 5–6 mice per group. Error bars represent SEM. In (a–c), *indicates p < 0.05 vs. respective control, and in (a,b), ^#indicates p < 0.001 comparing CML-AGE vs. PBS treatment.\nas §5\nMale, wild-type C57BL/6J mice were purchased from the Jackson Laboratories. At age 8 weeks, mice were pretreated with 4 doses of compounds 1–13, 5 mg/kg, by intraperitoneal administration twice daily for a total of two days and four total doses. Control treatment consisted of DMSO diluted into PBS. Thirty minutes after the last dose, CML-AGE (150 μg) was injected by intraperitoneal route. 4 h later, mice were sacrificed and kidney tissue was rapidly retrieved for preparation of mRNA and performance of real time quantitative PCR for the following mRNA transcripts, Tnfa and Il6."}, "[4]": {"test_system": "diabetic mouse heart (ex vivo)", "assay": "Isolated perfused diabetic heart, ischemia/reperfusion, LVDP recovery", "set-up": "species or system C57BL/6 mice", "details": "streptozotocin-diabetic mouse hearts ex vivo; 1 µM compound; 30 min ischemia, 60 min reperfusion; p < 0.05", "description": "Figure 6 Effect of compounds 1–13 in vivo. (a,b) C57BL/6J mice were subjected to intraperitoneal administration of four doses of compounds 1–13 (5 mg/kg every 12 h) or equal volumes of vehicle (PBS). Thirty minutes after the final injection, mice were injected with CML-AGE (150 μg) by intraperitoneal administration. Four h later, mice were sacrificed and kidney was retrieved. Real time quantitative PCR was performed for detection of Tnfa (a) and Il6 (b). (c) Assessment of compounds on cardiac functional recovery in diabetes. C57BL/6 mice were rendered type 1 diabetic with streptozotocin. […]\nFinally, we tested the effects of these compounds in settings in which RAGE ligands naturally accumulate, particularly the diabetic heart. […] At the end of reperfusion, we measured left ventricular developed pressure (LVDP) in the hearts, a key measure of functional recovery after injury.\nMale C57BL/6 mice, age 8–12 weeks, were purchased from The Jackson Laboratory and rendered diabetic by 55 mg/kg by intraperitoneal route of streptozotocin (STZ) (Sigma Aldrich, St. Louis MO) per day in fresh citrate buffer (0.05 mol/l; pH 4.5) for 5 consecutive days. […] Left ventricular developed pressure (LVDP) was measured using a latex balloon in the left ventricle and monitored continuously on an ADI recorder. […]"}}}
{"smiles": "COc1cc(SC)ccc1C(=O)Nc1cccc(C)n1", "note": "[Compound 1]", "values": [{"measurement": "effect on CML-AGE-mediated phospho/total ERK1/2", "setting": "[1]", "value": "significant suppression"}, {"measurement": "effect on CML-AGE-mediated stimulation of phospho/total-Akt", "setting": "[2]", "value": "significant suppression"}, {"measurement": "effect on CML-AGE-mediated upregulation of Il6", "setting": "[3]", "value": "significant suppression"}, {"measurement": "effect on CML-AGE-mediated upregulation of Tnfa mRNA in kidney", "setting": "Tnfa mRNA in kidney", "value": "significant suppression"}]}
{"smiles": "C=CCOc1ccc2c(C(F)(F)F)cc(=O)oc2c1", "note": "[Compound 2]", "values": [{"measurement": "effect on CML-AGE-mediated phospho/total ERK1/2", "setting": "[1]", "value": "significant suppression"}, {"measurement": "effect on CML-AGE-mediated stimulation of phospho/total-Akt", "setting": "[2]", "value": "significant suppression"}, {"measurement": "effect on CML-AGE-mediated upregulation of Il6", "setting": "[3]", "value": "significant suppression"}, {"measurement": "effect on CML-AGE-mediated upregulation of Tnfa mRNA in kidney", "setting": "Tnfa mRNA in kidney", "value": "significant suppression"}]}
{"smiles": "Cc1nc2ccccc2n1CC(O)Cn1c2ccccc2c2ccccc21", "note": "(centres unmarked) [Compound 3]", "values": [{"measurement": "effect on CML-AGE-mediated phospho/total ERK1/2", "setting": "[1]", "value": "significant suppression"}, {"measurement": "effect on CML-AGE-mediated stimulation of phospho/total-Akt", "setting": "[2]", "value": "significant suppression"}, {"measurement": "effect on CML-AGE-mediated upregulation of Il6", "setting": "[3]", "value": "significant suppression"}, {"measurement": "effect on CML-AGE-mediated upregulation of Tnfa mRNA in kidney", "setting": "Tnfa mRNA in kidney", "value": "significant suppression"}, {"measurement": "left ventricular developed pressure (LVDP) functional recovery after ischemia/reperfusion vs DMSO vehicle", "setting": "[4]", "value": "statistically-significantly higher LVDP"}]}
{"smiles": "OC(Cn1ccc2ccccc21)Cn1cnc2ccccc21", "note": "(centres unmarked) [Compound 4]", "values": [{"measurement": "effect on CML-AGE-mediated phospho/total ERK1/2", "setting": "[1]", "value": "significant suppression"}, {"measurement": "effect on CML-AGE-mediated stimulation of phospho/total-Akt", "setting": "[2]", "value": "significant suppression"}, {"measurement": "effect on CML-AGE-mediated upregulation of Il6", "setting": "[3]", "value": "significant suppression"}]}
{"smiles": "Cl.Oc1cccc(Nc2nc(-c3ccc(F)cc3F)cs2)c1", "note": "[Compound 5]", "values": [{"measurement": "effect on CML-AGE-mediated phospho/total ERK1/2", "setting": "[1]", "value": "significant suppression"}, {"measurement": "effect on CML-AGE-mediated stimulation of phospho/total-Akt", "setting": "[2]", "value": "did not significantly suppress"}, {"measurement": "effect on CML-AGE-mediated upregulation of Il6", "setting": "[3]", "value": "significant suppression"}, {"measurement": "effect on CML-AGE-mediated upregulation of Tnfa mRNA in kidney", "setting": "Tnfa mRNA in kidney", "value": "significant suppression"}]}
{"smiles": "COc1cc(NC(C)=O)c(Cl)cc1C(=O)Nc1nccs1", "note": "[Compound 6]", "values": [{"measurement": "effect on CML-AGE-mediated phospho/total ERK1/2", "setting": "[1]", "value": "did not significantly affect"}, {"measurement": "effect on CML-AGE-mediated stimulation of phospho/total-Akt", "setting": "[2]", "value": "significant suppression"}, {"measurement": "effect on CML-AGE-mediated upregulation of Il6", "setting": "[3]", "value": "significant suppression"}, {"measurement": "effect on CML-AGE-mediated upregulation of Tnfa mRNA in kidney", "setting": "Tnfa mRNA in kidney", "value": "significant suppression"}]}
{"smiles": "COC(=O)c1cc(OC)c(OC)cc1NC(=O)C1Oc2ccccc2OC1C", "note": "(centres unmarked) [Compound 7]", "values": [{"measurement": "effect on CML-AGE-mediated phospho/total ERK1/2", "setting": "[1]", "value": "did not significantly affect"}, {"measurement": "effect on CML-AGE-mediated stimulation of phospho/total-Akt", "setting": "[2]", "value": "did not significantly suppress"}, {"measurement": "effect on CML-AGE-mediated upregulation of Il6", "setting": "[3]", "value": "significant suppression"}, {"measurement": "left ventricular developed pressure (LVDP) functional recovery after ischemia/reperfusion vs DMSO vehicle", "setting": "[4]", "value": "statistically-significantly higher LVDP"}]}
{"smiles": "Cc1ccc(S(=O)(=O)N(C)C(F)F)cc1", "note": "[Compound 8]", "values": [{"measurement": "effect on CML-AGE-mediated phospho/total ERK1/2", "setting": "[1]", "value": "did not significantly affect"}, {"measurement": "effect on CML-AGE-mediated stimulation of phospho/total-Akt", "setting": "[2]", "value": "did not significantly suppress"}, {"measurement": "effect on CML-AGE-mediated upregulation of Il6", "setting": "[3]", "value": "significant suppression"}, {"measurement": "effect on CML-AGE-mediated upregulation of Tnfa mRNA in kidney", "setting": "Tnfa mRNA in kidney", "value": "significant suppression"}]}
